According to US7772241B2, “Variolin derivatives and their use as antitumor agents” (Pharma Mar S.A., priority 2001, dated 2010):
Read-outs that look alike come from different tables or passages of the source.

Columns and labels:
K-562 = test: Inhibition of cells growth by colorimetric (SRB) assay, K-562
Summary of the method: (§1)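 Human tumour cells seeded at 5×10^3/well in RPMI 1640 10% FBS, attached 18 h, then exposed 48 h to samples at 10 to 10^−8 μg/ml in DMSO/EtOH/PBS (0.5:0.5:99). Growth read by SRB staining after TCA fixation, OD 490 nm, triplicate wells; GI, TGI and LC derived.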

IGROV-1 = test: Inhibition of cells growth by colorimetric (SRB) assay, IGROV-1; settings: for GI50 / CC50: Homo sapiens, IGROV-1, 48 h; for GI50: read-out: IGROV GI50, SRB assay, 48 hours exposure; for IGROV TGI: SRB assay, 48 hours exposure
Summary of the method: as §1

HeLa-APL = test: Inhibition of cells growth by colorimetric (SRB) assay, HeLa-APL; settings: for GI50 / CC50: Homo sapiens, 48 h; for HELA-APL TGI: SRB assay, 48 hours exposure
Excerpt: (§2) The finality of these assays is to interrupt the growth of a “in vitro” tumor cell culture by means a continued exhibition of the cells to the sample to be testing.
(§3) This form of the assay employs 96 well cell culture microplates of 9 mm diameter (Faircloth, 1988; Mosmann, 1983). Most of the cell lines are obtained from American Type Culture Collection (ATCC) derived from different human cancer types.
(§4) Cells are maintained in RPMI 1640 10% FBS, supplemented with 0.1 g/l penicillin and 0.1 g/l streptomycin sulphate and then incubated at 37° C., 5% CO2 and 98% humidity. For the experiments, cells were harvested from subconfluent cultures using trypsin and resuspended in fresh medium before plating.
(§5) Cells are seeded in 96 well microtiter plates, at 5×10^3 cells per well in aliquots of 195 μl medium, and they are allowed to attach to the plate surface by growing in drug free medium for 18 hours. Afterward, samples are added in aliquots of 5 μl in a ranging from 10 to 10^−8 μg/ml, dissolved in DMSO/EtOH/PBS (0.5:0.5:99). After 48 hours exposure, the antitumor effect are measured by the SRB methodology: cells are fixed by adding 50 μl of cold 50% (wt/vol) trichloroacetic acid (TCA) and incubating for 60 minutes at 4° C. Plates are washed with deionized water and dried. One hundred μl of SRB solution (0.4% wt/vol in 1% acetic acid) is added to each microtiter well and incubated for 10 minutes at room temperature. Unbound SRB is removed by washing with 1% acetic acid. Plates are air dried and bound stain is solubilized with Tris buffer. Optical densities are read on a automated spectrophotometric plate reader at a single wavelength of 490 nm.
(§6) The values for mean +/−SD of data from triplicate wells are calculated. Some parameters for cellular responses can be calculated: GI=growth inhibition, TGI=total growth inhibition (cytostatic effect) and LC=cell killing (cytotoxic effect).

PANC-1 = test: Inhibition of cells growth by colorimetric (SRB) assay, PANC-1; settings: for GI50 / CC50: Homo sapiens, PANC-1, 48 h; for GI50: read-out: PANC-1 GI50, SRB assay, 48 hours exposure; for PANC-1 TGI: SRB assay, 48 hours exposure
Summary of the method: as §1

DU-145 = test: Inhibition of cells growth by colorimetric (SRB) assay, DU-145; settings: for GI50 / CC50: Homo sapiens, DU-145, 48 h; for GI50: read-out: DU-145 GI50, SRB assay, 48 hours exposure; for DU-145 TGI: SRB assay, 48 hours exposure
Summary of the method: as §1

LoVo-Dox = test: Inhibition of cells growth by colorimetric (SRB) assay, LoVo-Dox; settings: for GI50 / CC50: Homo sapiens, 48 h; for GI50: read-out: LOVO-DOX GI50, SRB assay, 48 hours exposure; for LOVO-DOX TGI: SRB assay, 48 hours exposure
Summary of the method: as §1

A-549 = test: Inhibition of cells growth by colorimetric (SRB) assay, A-549; settings: for GI50 / CC50: Homo sapiens, A549, 48 h; for GI50: read-out: A-549 GI50, SRB assay, 48 hours exposure; for A-549 TGI: SRB assay, 48 hours exposure
Summary of the method: as §1

HT-29 = test: Inhibition of cells growth by colorimetric (SRB) assay, HT-29; settings: for GI50 / CC50: Homo sapiens, HT-29, 48 h; for GI50: read-out: HT-29 GI50, SRB assay, 48 hours exposure; for HT-29 TGI: SRB assay, 48 hours exposure
Summary of the method: as §1

SK-MEL-28 = test: Inhibition of cells growth by colorimetric (SRB) assay, SK-MEL-28; settings: for GI50 / CC50: Homo sapiens, SK-MEL-28, 48 h; for GI50: read-out: MEL-28 GI50, SRB assay, 48 hours exposure; for MEL-28 TGI: SRB assay, 48 hours exposure
Summary of the method: as §1

SK-BR-3 = test: Inhibition of cells growth by colorimetric (SRB) assay, SK-BR-3; settings: for GI50 / CC50: Homo sapiens, SK-BR-3, 48 h; for GI50: read-out: SK-BR-3 GI50, SRB assay, 48 hours exposure; for SK-BR-3 TGI: SRB assay, 48 hours exposure
Summary of the method: as §1

HeLa = test: Inhibition of cells growth by colorimetric (SRB) assay, HeLa; settings: for GI50: Homo sapiens, HeLa, 48 h, read-out: HELA GI50, SRB assay, 48 hours exposure; for HELA TGI: SRB assay, 48 hours exposure
Excerpt: as §2, §3, §4, §5, §6

LoVo = test: Inhibition of cells growth by colorimetric (SRB) assay, LoVo; settings: for GI50 / CC50: Homo sapiens, LoVo, 48 h; for GI50: read-out: LOVO GI50, SRB assay, 48 hours exposure; for LOVO TGI: SRB assay, 48 hours exposure
Summary of the method: as §1

LNCaP = test: Inhibition of cells growth by colorimetric (SRB) assay, LNCaP
Summary of the method: as §1

IGROV-ET = test: Inhibition of cells growth by colorimetric (SRB) assay, IGROV-ET; settings: for GI50 / CC50: Homo sapiens, 48 h; for GI50: read-out: IGROV-ET GI50, SRB assay, 48 hours exposure; for IGROV-ET TGI: SRB assay, 48 hours exposure
Summary of the method: as §1

## Cl.Nc1nccc(-c2c3c(O)ccnc3n3c(N)nccc23)n1 [Compound 54]
K-562; Homo sapiens, K562, 48 h, read-out: K-562 GI50, SRB assay, 48 hours exposure
  GI50: 1670 nM
K-562; Homo sapiens, K562, 48 h, read-out: K-562 LC50
  CC50: 27300 nM
K-562; SRB assay, 48 hours exposure
  K-562 TGI: 1.44E−05
IGROV-1
  GI50: 440 nM
  IGROV TGI: 1.37E−06
IGROV-1; read-out: IGROV LC50
  CC50: 27300 nM
HeLa-APL; read-out: HELA-APL GI50
  GI50: 61.2 nM
HeLa-APL; read-out: HELA-APL LC50
  CC50: 270 nM
HeLa-APL
  HELA-APL TGI: 1.28E−07
PANC-1
  GI50: 871 nM
  PANC-1 TGI: 3.28E−06
PANC-1; read-out: PANC-1 LC50
  CC50: 27300 nM
DU-145
  GI50: 360 nM
  DU-145 TGI: 1.32E−06
DU-145; read-out: DU-145 LC50
  CC50: 27300 nM
LoVo-Dox
  GI50: 155 nM
  LOVO-DOX TGI: 7.32E−07
LoVo-Dox; read-out: LOVO-DOX LC50
  CC50: 27300 nM
A-549
  GI50: 339 nM
  A-549 TGI: 1.10E−06
A-549; read-out: A-549 LC50
  CC50: 27300 nM
HT-29
  GI50: 1690 nM
  HT-29 TGI: 8.71E−06
HT-29; read-out: HT-29 LC50
  CC50: 27300 nM
SK-MEL-28
  GI50: 945 nM
  MEL-28 TGI: 3.22E−06
SK-MEL-28; read-out: MEL-28 LC50
  CC50: 11400 nM
SK-BR-3
  GI50: 530 nM
  SK-BR-3 TGI: 1.19E−06
SK-BR-3; read-out: SK-BR-3 LC50
  CC50: 2670 nM
HeLa
  GI50: 57.3 nM
  HELA TGI: 1.17E−07
LoVo
  GI50: 266 nM
  LOVO TGI: 1.04E−06
LoVo; read-out: LOVO LC50
  CC50: 27300 nM
LNCaP; Homo sapiens, LNCaP, 48 h, read-out: LN-caP GI50, SRB assay, 48 hours exposure
  GI50: 287 nM
LNCaP; Homo sapiens, LNCaP, 48 h, read-out: LN-caP LC50
  CC50: 1820 nM
LNCaP; SRB assay, 48 hours exposure
  LN-caP TGI: 7.24E−07
IGROV-ET
  GI50: 421 nM
  IGROV-ET TGI: 1.48E−06
IGROV-ET; read-out: IGROV-ET LC50
  CC50: 27300 nM

## CSc1nccc(-c2c3c(Cl)ccnc3n3c(N)nccc23)n1.Cl [Compound 108]
IGROV-1
  GI50: 2330 nM
  IGROV TGI: 2.64E−05
IGROV-1; read-out: IGROV LC50, SRB assay, 48 hours exposure
  CC50: 26400 nM
HeLa-APL; read-out: HELA-APL GI50, SRB assay, 48 hours exposure
  GI50: 9.54 nM
HeLa-APL; read-out: HELA-APL LC50, SRB assay, 48 hours exposure
  CC50: 26400 nM
HeLa-APL
  HELA-APL TGI: 2.04E−07
PANC-1
  GI50: 3370 nM
  PANC-1 TGI: 2.64E−05
PANC-1; read-out: PANC-1 LC50, SRB assay, 48 hours exposure
  CC50: 26400 nM
DU-145
  GI50: 1500 nM
  DU-145 TGI: 2.64E−05
DU-145; read-out: DU-145 LC50, SRB assay, 48 hours exposure
  CC50: 26400 nM
LoVo-Dox
  GI50: 680 nM
  LOVO-DOX TGI: 1.61E−06
LoVo-Dox; read-out: LOVO-DOX LC50, SRB assay, 48 hours exposure
  CC50: 26400 nM
A-549
  GI50: 2020 nM
  A-549 TGI: 2.16E−05
A-549; read-out: A-549 LC50, SRB assay, 48 hours exposure
  CC50: 26400 nM
HT-29
  GI50: 701 nM
  HT-29 TGI: 2.64E−05
HT-29; read-out: HT-29 LC50, SRB assay, 48 hours exposure
  CC50: 26400 nM
SK-MEL-28
  GI50: 925 nM
  MEL-28 TGI: 2.64E−05
SK-MEL-28; read-out: MEL-28 LC50, SRB assay, 48 hours exposure
  CC50: 26400 nM
SK-BR-3
  GI50: 5620 nM
  SK-BR-3 TGI: 1.60E−05
SK-BR-3; read-out: SK-BR-3 LC50, SRB assay, 48 hours exposure
  CC50: 26400 nM
HeLa
  GI50: 7.51 nM
  HELA TGI: 1.15E−07
LoVo
  GI50: 208 nM
  LOVO TGI: 7.57E−07
LoVo; read-out: LOVO LC50, SRB assay, 48 hours exposure
  CC50: 4850 nM
IGROV-ET
  GI50: 11300 nM
  IGROV-ET TGI: 2.64E−05
IGROV-ET; read-out: IGROV-ET LC50, SRB assay, 48 hours exposure
  CC50: 26400 nM
